Experimental findings from patent US20080009025A1, “PROTEIN KINASE REGULATION” (priority 1999, published 2008) are described below.

The test system of this test is PDK1. The experiment in a line: Activation of AGC kinase substrates by PDK1 (Crosstide assay). The class given is biochemical, human. The following applies: for inhibition of the activation of S6K1-T2[T412E] and SGK1[T422D] by PDK1 PIF pocket mutants: PDK1[K115A], [I119A], [Q150A], [L155A]. The protocol: FIG. 20. Effect of PIFtide on the activation of S6K1 and SGK1 by PDK1 PIF pocket mutants (155A, 115A, 119A, 150A). GST-PDK1, GST-PDK1 L155E, 155A, 115A, 119A and 150A were tested for their ability to activate His-S6K1 412E and GST-SGK1 422D. The phosphorylation and activation of substrates was performed as described in FIG. 17. When PIFtide was included in the reaction, it was pre-incubated on ice for ˜15 min until the reaction was initiated with the addition of ATP-Mg.
Activation of AGC kinase PDK1 substrates. Phosphorylation reactions were carried out as above except that non-radioactive ATP replaced [γ-^32P]ATP. Following 10 min at 30° C., cocktail (30 μl) containing 50 mM Tris-HCl pH 7.5, 0.1% (by vol) 2-mercaptoethanol, 10 mM magnesium chloride, […], 0.5 μM microcystin-LR and 100 μM peptide substrate crosstide (GRPRTSSFAEG) and [γ-^32P]ATP (˜600 c.p.m./pmol). Reactions were stopped by the addition of 25 μl of 0.2 M EDTA pH 8.0, spotted onto P81 phosphocellulose paper, washed and analysed as described for the assay of MAP kinase. The amount of PDK1 was in the assay was varied so that the assay was in the linear range. One unit of activity is deficed as phosphorylation 1 nmol of substrate in 1 min.

Where a SMILES comes first, the peptide text is derived from it.

For `CC[C@H](C)[C@H](NC(=O)[C@H](Cc1ccc(O)cc1)NC(=O)[C@H](CC(=O)O)NC(=O)[C@H](Cc1ccccc1)NC(=O)[C@H](CC(=O)O)NC(=O)[C@H](CCCNC(=N)N)NC(=O)[C@H](Cc1ccccc1)NC(=O)[C@H](CCSC)NC(=O)[C@H](CCC(=O)O)NC(=O)[C@H](CCC(N)=O)NC(=O)[C@H](CCC(=O)O)NC(=O)[C@H](CCC(=O)O)NC(=O)[C@H](CCC(=O)O)NC(=O)[C@H](CO)NC(=O)[C@H](CC(C)C)NC(=O)[C@@H](NC(=O)[C@H](CCCNC(=N)N)NC(=O)[C@@H]1CCCN1C(=O)[C@H](CCC(=O)O)NC(=O)[C@@H](N)CCCNC(=N)N)[C@@H](C)CC)C(=O)N[C@@H](C)C(=O)N[C@@H](CC(=O)O)C(=O)N[C@@H](Cc1c[nH]c2ccccc12)C(=O)N[C@@H](CS)C(=O)O` [PIFtide] (H-REPRILSEEEQEMFRDFDYIADWC-OH; N-terminus and C-terminus assumed), where the note is “2 μM PIFtide”, the “inhibition of the activation of S6K1[T412E] by wild type PDK1” value is listed as greater than 20 fold; the “inhibition of the activation of S6K1-T2[T412E] and SGK1[T422D] by PDK1 PIF pocket mutants” value is reported as roughly 50%. Besides, the “inhibition of the activation of S6K1-T2[T412E] and SGK1[T422D] by PDK1 PIF pocket mutants” value (35 μM PIFtide) is “over 95%”. In addition, the “PDK1's ability to phosphorylate and activate SGK1, ΔPH-PKBα, S6K1[T412E], SGK1[T422D] and ΔPH-PKBα[S473D]” value (in the presence of PIFtide) is listed as “markedly inhibited”.
